In ChEMBL document CHEMBL3822355, “Synthesis and evaluation of substituted 4-(N-benzylamino)cinnamate esters as potential anti-cancer agents and HIV-1 integrase inhibitors” (Bioorg Med Chem Lett, 2016) one finds IC50 and viability data, which are given here for ten molecules.

The subject of one data set is HeLa. In words: Anti-cancer activity against human HeLa cells assessed as reduction in cell viability after 72 hrs by WST-1 assay. Type of data set: functional, cell-based.
The test system of another data set is MDA-MB-231. In words: Anti-cancer activity against human MDA-MB-231 cells assessed as reduction in cell viability after 72 hrs by WST-1 assay. In kind it is functional, cell-based. Particulars: MDA-MB-231, 72 h. For orientation: Tetrazolium assays rely on reduction of a dye to a coloured formazan, in cell work by metabolically active cells.
The nature of data set [1]: Cytotoxicity against HEK293 cells assessed as cell viability at 100 uM after 48 hrs by resazurin assay. In kind it is cell-based. Particulars: human, read-out: Activity. A general note: Resazurin is reduced to fluorescent resorufin, in cell work by metabolically active cells.

One may read the IC50 as the concentration that gives 50% inhibition. As for `CC(=O)O[C@H]1C(=O)[C@@]2(C)[C@H]([C@H](OC(=O)c3ccccc3)[C@]3(O)C[C@H](OC(=O)[C@H](O)[C@@H](NC(=O)c4ccccc4)c4ccccc4)C(C)=C1C3(C)C)[C@]1(OC(C)=O)CO[C@@H]1C[C@@H]2O` [PACLITAXEL], the IC50 with HeLa was 0.0199 µM.

For the molecule `COC(=O)/C=C/c1ccc(NCc2cc(Cl)ccc2O)cc1`, the IC50 in the data set on MDA-MB-231 stood at 86.4 µM; in the data set on HeLa, 8.56 µM. In addition, the viability at 48 h, 100 µM in data set [1] came out at 92.4%.

Turning to `COC(=O)/C=C/c1ccc(NCc2ccc(O)c(O)c2)cc1`, the half-inhibitory concentration (IC50) with MDA-MB-231 turned out to be 36.6 µM; in the data set with HeLa, 78.1 µM. Besides, the viability at 48 h, 100 µM in data set [1] worked out at 114%.

For `COC(=O)/C=C/c1ccc(NCc2cccc(OC)c2O)cc1`, the values for the half-maximal inhibitory concentration (IC50) in the data set with MDA-MB-231 and in the data set with HeLa were 73.7 µM and 3.04 µM, respectively. In addition, the viability at 48 h, 100 µM in data set [1] came out at 114%.

As to `COC(=O)/C=C/c1ccc(NCc2cc(Br)ccc2O)cc1`, the IC50 with MDA-MB-231 is 109 µM; in the data set on HeLa, 7.82 µM. For the same molecule, the viability at 48 h, 100 µM in data set [1] worked out at 98.1%.

With `COC(=O)/C=C/c1ccc(NCc2cc([N+](=O)[O-])ccc2O)cc1`, the IC50 in the data set on MDA-MB-231 came out at 17.4 µM; with HeLa, 16 µM. In addition, the viability at 48 h, 100 µM in data set [1] was determined as 108%.

As for `COC(=O)/C=C/c1ccc(NCc2cccc(O)c2O)cc1`, the IC50 in the data set with MDA-MB-231 was determined as 32.6 µM; in the data set with HeLa, 68.2 µM. Besides, the viability at 48 h, 100 µM in data set [1] came out at 82.3%.

With `COC(=O)/C=C/c1ccc(NCc2cc(Cl)cc(Cl)c2O)cc1`, the values for the concentration for half-maximal inhibition (IC50) with MDA-MB-231 and in the data set with HeLa were 9.61 µM and 25.9 µM, respectively. In addition, the viability at 48 h, 100 µM in data set [1] turned out to be 107%.

For the molecule `COC(=O)/C=C/c1ccc(NCc2ccccc2O)cc1`, the results for the IC50 in the data set on MDA-MB-231 and with HeLa were 31.7 µM and 7.17 µM, respectively. Moreover, in data set [1], the viability at 48 h, 100 µM stood at 94.4%.

For the molecule `COC(=O)/C=C/c1ccc(NCc2cc(Br)cc(Br)c2O)cc1`, the values for the IC50 in the data set on MDA-MB-231 and in the data set on HeLa were 11.5 µM and 35.4 µM, respectively. In data set [1], the viability at 48 h, 100 µM is 114%.
